**Q.** With `CC(C)C[C@H](NC(=O)[C@@H](NC(=O)c1cncc(-c2ccccc2)c1)[C@@H](C)O)B1O[C@@H]2C[C@@H]3C[C@@H](C3(C)C)[C@]2(C)O1` [H.2.6, 5-Phenyl-pyridine-3-carboxamide, N-[(1S,2R)-1-[[[(1R)-1-[(3aS,4S,6S,7aR)-hexahydro-3a,5,5-trimethyl-4,6-methano-1,3,2-benzodioxaborol-2-yl]-3-methylbutyl]amino]carbonyl]-2-hydroxypropyl]] as the molecule, how does the melting point read?
**A.** 135 to 140 °C

**Q.** For `CC(C)C[C@H](NC(=O)[C@@H](NC(=O)c1ccc(-c2ccccc2)cn1)[C@@H](C)O)B(O)O` [K.2.7, Boronic acid, [(1R)-1-[[(2S,3R)-3-hydroxy-2-[(5-phenyl-pyridine-2-carbonyl)amino]-1-oxobutyl]amino]-3-methylbutyl]], which melting point is on record?
**A.** 190 to 195 °C

**Q.** Which melting point does the source give for `CC(C)C[C@H](NC(=O)[C@@H](NC(=O)c1cc(-c2ccccc2)n[nH]1)[C@@H](C)O)B(O)O` [K.2.13, Boronic acid, [(1R)-1-[[(2S,3R)-3-hydroxy-2-[(5-phenyl-2H-pyrazole-3-carbonyl)amino]-1-oxobutyl]amino]-3-methylbutyl]] here?
**A.** 232 to 236 °C

**Q.** For `Cc1ccc(C(=O)NC[C@H](NC(=O)c2cccnc2)C(=O)N[C@@H](CC(C)C)B(O)O)cc1` [L.2.4, Boronic acid, [(1R)-1-[[(2 S)-3-[(4-methylbenzoyl)amino]-2-[(pyridine-3-carbonyl)amino]-1-oxopropyl]amino]-3-methyibutyl]], which melting point is on record?
**A.** 220 to 222 °C

**Q.** With `Cc1ccc(C(=O)NC[C@H](NC(=O)c2ccc3ccccc3n2)C(=O)N[C@@H](CC(C)C)B(O)O)cc1` [L.2.5, Boronic acid, [(1R)-1-[[(2 S)-3-[(4-methylbenzoyl)amino]-2-[(quinoline-2-carbonyl)amino]-1-oxopropyl]amino]-3-methylbutyl]] as the molecule, how does the melting point read?
**A.** 235 to 237 °C

**Q.** For `Cc1ccc(C(=O)NC[C@H](NC(=O)c2cccc(-c3cccs3)n2)C(=O)N[C@@H](CC(C)C)B(O)O)cc1` [L.2.21], which melting point is on record?
**A.** 158 to 160 °C

Source: US8283367B2, “Proteasome inhibitors and methods of using the same” (Cephalon, Inc., priority 2005, dated 2012)
